Columns and labels:
[1] = system: bipolar manic-depressive patients; conditions: 300 mg per day for one year; cited from earlier work
rats = conditions: injected at a dose of 1 mg per kg; cited from earlier work
[2] = system: aged mouse femur, age-related bone loss; assay: Age-related (Type 2) osteoporosis in aged mice, one year treatment; type: in vivo
Procedure: A one year old mouse is biologically similar to a 45-50 year-old human. Starting at 1 year of age, methylene blue was administered in the cage water supply (0.2% by weight) for one year to three male mice. Control mice received normal water. Animals were free to consume water and food ad libitum. Bones were examined when the mice were two years old, which is similar to a 75-80 year-old person.
FIG. 3A is a micro-Xray image of aged mouse femur from mouse with no treatment. Large holes or pores are clearly seen in the bone, as is thinning of the bone cortex. This is normal age-related osteoporosis.
FIG. 3B is a micro-Xray image of aged mouse femur from mouse after one year duration methylene blue treatment. No increases in porosity or cortex thinning are seen.

[3] = system: estrogen-deficient (OVX) mice, post-menopausal type bone loss; assay: Ovariectomy (OVX) estrogen-depletion bone loss prevention in mice; type: in vivo
Text: Young adult mice were subjected to surgical ovariectomy (OVX) to deplete estrogen. This is widely accepted model for inducing post-menopausal type bone loss. It is the standard used by pharmaceutical companies in preclinical trials and is required by the FDA to confirm efficacy of an agent in preventing bone loss. Seven sham control mice received a surgical incision and wound closure but ovaries were left intact. Mice were return to their cages after surgery. Six “MB” mice received methylene blue in the cage water (0.2% in cage water supply starting 24 hours before surgery) which they were allowed to consume ad libitum for the duration of the study (three months); the remainder of the mice received normal cage water. Mice were sacrificed at three months post-OVX and bones were examined using microCT. The results are depicted in FIG. 2A and FIG. 2B which show bone changes with estrogen loss (OVX) were prevented by systemic treatment with methylene blue (MB). FIG. 2B is a graph of Bone Volume over Total Volume (BV/TV) for the groups of mice.

[4] = system: chronic renal calculus disease; conditions: 65 mg taken three times a day; cited from earlier work

Question: Which “Depression compared with placebo” value [1] does the source give for CN(C)c1ccc2nc3ccc(=[N+](C)C)cc-3sc2c1 [methylene blue] here?
Answer: The value was “significantly less depressed”.

Question: And the “Brain oxidative metabolism and memory retention” value (rats)?
Answer: Its value is “improved”.

Question: And the “Bone porosity compared to bones from control mice” value ([2]; 0.2% by weight in cage water for one year from 1 year of age, male mice, femur examined at two years old, FIG. 4)?
Answer: Its value is “about half”.

Question: What about the “Cortex thinning (micro-Xray image)” value ([2]; 0.2% by weight in cage water for one year, aged mouse femur, FIG. 3B) of the same molecule?
Answer: The value was “prevented the cortex or shell of the bone from thinning”.

Question: What about the “Bone loss, Bone Volume over Total Volume (BV/TV)” value ([3]; 0.2% in cage water ad libitum, three months post-OVX, microCT of distal femur, OVX without treatment approx. 40% reduction in bone volume) of the same molecule?
Answer: Its value is “almost completely prevented”.

Question: What about the Bone mechanical property ([3]; mice model of estrogen removal) of the same molecule?
Answer: Its Bone mechanical property is “maintained”.

Question: And the Bone mineral density ([3]; mice model of estrogen removal)?
Answer: Its Bone mineral density is “maintained”.

Question: What about the “Cancellous bone loss after estrogen removal” value ([3]; mice model of estrogen removal) of the same molecule?
Answer: The value was “prevent cancellous bone loss”.

Question: What about the Osteocyte apoptosis ([3]; mice model of estrogen removal) of the same molecule?
Answer: Its Osteocyte apoptosis is “prevent osteocyte apoptosis”.

Question: And the “Oxidative stress in bone cells” value ([3]; mice model of estrogen removal)?
Answer: Its value is “protect bone cells from oxidative stress”.

Question: And the “Management of chronic renal calculus disease” value [4]?
Answer: Its value is “useful”.
